According to patent publication US7129232B2, “Cephem compounds” (Astellas Pharma Inc., priority 2002, dated 2006):
Converted amounts (≈) assume the structure as drawn.

Tested on: Pseudomonas aeruginosa FP 1380
Assay: In vitro antibacterial activity (MIC) by the two-fold agar-plate dilution method
Assay type: cell-based
Settings: test strain Pseudomonas aeruginosa FP 1380, heart infusion agar, incubation at 37° C. for 20 hours; for MIC: FP1380, read-out: MIC (minimal inhibitory concentration)
Method: In vitro antibacterial activity was determined by the two-fold agar-plate dilution method as described below.
One loopful of an overnight culture of each test strain in Trypticase-soy broth (10^6 viable cells per ml) was streaked on heart infusion agar (HI-agar) containing graded concentrations of representative test compound, and the minimal inhibitory concentration (MIC) was expressed in μg/ml after incubation at 37° C. for 20 hours.

Compound	MIC	MIC (minimal inhibitory concentration)
Cn1c(N)c(NC(=O)NCCN)c[n+]1CC1=C(C(=O)O)N2C(=O)[C@@H](NC(=O)/C(=N\OC(C)(C)C(=O)O)c3nsc(N)n3)[C@H]2SC1.O=S(=O)([O-])O [Compound (d), 7β-[(Z)-2-(5-amino-1,2,4-thiadiazol-3-yl)-2-(1-carboxy-1-methylethoxyimino)acetamido]-3-{3-amino-4-[3-(2-aminoethyl)ureido]-2-methyl-1-pyrazolio}methyl-3-cephem-4-carboxylic acid hydrogen sulfate]	2 µg/mL	
Cn1c(N)c(NC(=N)N)c[n+]1CC1=C(C(=O)O)N2C(=O)[C@@H](NC(=O)/C(=N\OC(C)(C)C(=O)O)c3nsc(N)n3)[C@H]2SC1.O=S(=O)([O-])O [Compound (e), 7β-[(Z)-2-(5-amino-1,2,4-thiadiazol-3-yl)-2-(1-carboxy-1-methylethoxyimino)acetamido]-3-(3-amino-4-guanidino-2-methyl-1-pyrazolio)methyl-3-cephem-4-carboxylic acid hydrogen sulfate]	1 µg/mL	
CC(C)(O/N=C(\C(=O)N[C@@H]1C(=O)N2C(C(=O)[O-])=C(C[n+]3cc(NC(=O)CCN)c4n3CCN4)CS[C@H]12)c1nsc(N)n1)C(=O)O [Compound (a), 7β-[(Z)-2-(5-amino-1,2,4-thiadiazol-3-yl)-2-(1-carboxy-1-methylethoxyimino)acetamido]-3-[7-(3-aminopropionamido)-2,3-dihydro-5-(1H-imidazo[1,2-b]pyrazolio)]methyl-3-cephem-4-carboxylate]		2 µg/mL (≈ 3.01 µM)
Cn1c(N)c(NC(=O)CCN)c[n+]1CC1=C(C(=O)[O-])N2C(=O)[C@@H](NC(=O)/C(=N\OC(C)(C)C(=O)O)c3nsc(N)n3)[C@H]2SC1 [Compound (b), 7β-[(Z)-2-(5-amino-1,2,4-thiadiazol-3-yl)-2-(1-carboxy-1-methylethoxyimino)acetamido]-3-[3-amino-4-(3-aminopropionamido)-2-methyl-1-pyrazolio]methyl-3-cephem-4-carboxylate]	1 µg/mL (≈ 1.53 µM)	
Cn1c(N)c(NC(=O)CN)c[n+]1CC1=C(C(=O)O)N2C(=O)[C@@H](NC(=O)/C(=N\OC(C)(C)C(=O)O)c3nsc(N)n3)[C@H]2SC1.O=S(=O)([O-])O [Compound (c), 7β-[(Z)-2-(5-amino-1,2,4-thiadiazol-3-yl)-2-(1-carboxy-1-methylethoxyimino)acetamido]-3-[3-amino-4-(aminoacetyl)amino-2-methyl-1-pyrazolio]methyl-3-cephem-4-carboxylic acid hydrogen sulfate]	2 µg/mL	
CC(C)(O/N=C(\C(=O)N[C@@H]1C(=O)N2C(C(=O)[O-])=C(C[n+]3ccccc3)CS[C@H]12)c1csc(N)n1)C(=O)O [Ceftazidime, reference compound]	128 µg/mL (≈ 234 µM)	
